Here are results for one compound from patent publication US20230302022A1, “PREVENTING OR MITIGATING CHEMOTHERAPY INDUCED ALOPECIA USING VITAMIN D” (priority 2016, published 2023).

Data set [1] concerns PC-3. Briefly: Cell viability assay, PC-3. The format is cell-based. Conditions: PC-3, 0.1 μg/mL calcitriol for two passages. The procedure:
The drug treatment period was usually three days. At the end of the three days, the background OD of the 96-well plate was read at 280 nm, before 20 μL of the “Substrate Cell Titer 96 Aqueous One Solution Reagent” (Promega) was added to each well. The plate was returned to the 37° C. incubator, and its OD at 490 nm was read each hour until an OD of approximately 1.5 was reached. The net OD increase was calculated by subtracting the pre-substrate OD reading.
The impact of the drug on the cells was calculated by comparing the OD at different concentrations in relation to the OD of the control wells (without the drug).
Then these pretreated cells were utilized to set up the cell based assay.

Data set [2] concerns EMT-6 murine breast tumor. Conditions: topical pretreatment + cyclophosphamide vs either agent alone; cited from earlier work.
Data set [3] has as its system patients. Description: Phase I study: chemotherapy-induced alopecia in patients. It is filed as in vivo, human. The following applies: patients at all dose levels, weeks 7 and 15 vs baseline. The source says:
Photographic assessment will be performed using a Canon Power Shot G12 camera system to ensure standardization and uniformity among all enrolled patients. The following five views will be obtained at each photographic assessment: bilateral sides of head/scalp view, front of head/face view, back of head/scalp view, and top of head/scalp view. Additionally, close-up photographs will be taken at the same times points. […] Photographs will be standardized for lighting, camera angle, and position to the participants head. These assessments will be performed at the following time points: at baseline, weeks 7, 15, 27, and 54. Photographs for patients in each cohort representing baseline, and treatment weeks 7 and 15 will be presented blind to the study principle investigator after at least 3 patients have completed 15 weeks of treatment. Photographs will also be taken at week 27 and week 54 of the study but will be included in the final photographic assessment as secondary information. […]
Subjective record of hair and scalp. Alopecia will also be subjectively recorded through the patient self-reported diaries. […]
Each patient underwent PK analysis, adverse event monitoring, patient self-assessment diaries (1-10 scale), and blinded photographic assessments. […] Toxicity was determined on a weekly basis during Cycle 1 (i.e., the first 28 days of topical agent application) and subsequently every four weeks. […]

For data set [4], the system named is SKMEL-28 (melanoma). Briefly: Cell growth / viability assay, SKMEL-28. The format is cell-based. As to the method: (§1) The drug treatment period was usually three days. At the end of the three days, the background OD of the 96-well plate was read at 280 nm, before 20 μL of the “Substrate Cell Titer 96 Aqueous One Solution Reagent” (Promega) was added to each well. […] The net OD increase was calculated by subtracting the pre-substrate OD reading. The impact of the drug on the cells was calculated by comparing the OD at different concentrations in relation to the OD of the control wells (without the drug). The results of the Net OD as a function of drug concentration was plotted and used to determine ED50 values.

Data set [5] relates to NCI-ES-0808. Briefly: Cell growth / viability assay, NCI-ES-0808. It is filed as cell-based. As to the method: as §1
Data set [6] relates to HEKa cells. Description: Antibody microarray (Panorama XP725) of calcitriol-treated HEKa cells. The format is cell-based, human. The following applies: 24-hour. As to the method: Briefly, the treated HEKa cells were first harvested and then extracted to obtain a soluble protein supernatant. Two portions of the extracted protein sample (˜1 mg total) from each sample (at 1 mg/mL) were each labeled with fluorescent dye (Cy3 and Cy5, respectively). The excess dye was removed from the protein sample, and the resulting labeled protein samples were used for microarray incubation. To determine the expression level of a particular target protein at a later time point (e.g., at hour 6 or 24) relative to that at an earlier time point (e.g., at hour 3), the samples were labeled by different labels (e.g., 3-hour extract labeled with Cy3, 6-hour or 24-hour extract labeled with Cy5). Then the two labeled samples containing equal amounts of total protein were mixed (e.g., Cy3-labeled 3-hour sample is mixed with Cy5-labeled 6-hour or 24-hour samples, respectively). After incubation with the microarray chip (according to manufactures recommended protocols), the chips were washed and dried. The microarrays were then scanned with a fluorescent laser scanner to measure the relative fluorescence intensity of the Cy3 and Cy5 dyes. If the amount of a particular type of target protein increased (or decreased) over time, more (or less) of the dye associated with the later time point (e.g., Cy5) will be retained by the microarray. […]

In the case of `C=C1/C(=C\C=C2/CCC[C@]3(C)[C@@H]([C@H](C)CCCC(C)(C)O)CC[C@@H]23)C[C@@H](O)C[C@@H]1O` [Calcitriol, (5Z,7E)-9,10-secocholesta-5,7.10(19Hriene-1 a,33.25-triol], in data set [1], the “response to doxorubicin, cisplatin and erlotinib after calcitriol exposure” value is reported as “did not alter”. Moreover, in data set [2], the “rate of tumor growth” value is “greater reduction in the rate of tumor growth”. The chemotherapy induced alopecia entry in data set [3] is given as “diminished chemotherapy induced alopecia”. Further, in data set [4] (SKMEL-28), the “effect of calcitriol on cell growth” value is listed as “no significant growth promoting or growth inhibiting effects” and the “effect of calcitriol on the cytotoxic effect of Doxorubicin” value is on record as “did not appear to appreciably alter”. Besides, the “5-FU ED50 curve with vs without calcitriol” value in data set [4] (SKMEL-28, 0.1 μg/mL calcitriol) is reported as “not significantly different”. For the same compound, in data set [5], the “effect of calcitriol on cell growth” value is reported as “no significant growth promoting or growth inhibiting effects” and the “effect of calcitriol on the cytotoxic effect of Doxorubicin” value was “did not appear to appreciably alter”. In data set [6], the “proteins significantly upregulated (number)” value was “about fifty proteins”.
